Source: ChEMBL document CHEMBL5465560, “Selectivity Literature for EUbOPEN Chemogenomic Library” (2024)

Experiments:
[1] = target: Leukocyte tyrosine kinase receptor (Homo sapiens, UniProt P29376); test: Selectivity interaction (Kinase panel (Z-LYTE Assay)) EUB0001632a LTK; conditions: at 10 µM
[2] = target: T1, Serine/threonine-protein kinase RIO3 (Homo sapiens) (UniProt O14730); test: Selectivity interaction (KinomeScan (DiscoverX)) EUB0000666a RIOK3; conditions: at 10 µM
T1 sequence (whole entry): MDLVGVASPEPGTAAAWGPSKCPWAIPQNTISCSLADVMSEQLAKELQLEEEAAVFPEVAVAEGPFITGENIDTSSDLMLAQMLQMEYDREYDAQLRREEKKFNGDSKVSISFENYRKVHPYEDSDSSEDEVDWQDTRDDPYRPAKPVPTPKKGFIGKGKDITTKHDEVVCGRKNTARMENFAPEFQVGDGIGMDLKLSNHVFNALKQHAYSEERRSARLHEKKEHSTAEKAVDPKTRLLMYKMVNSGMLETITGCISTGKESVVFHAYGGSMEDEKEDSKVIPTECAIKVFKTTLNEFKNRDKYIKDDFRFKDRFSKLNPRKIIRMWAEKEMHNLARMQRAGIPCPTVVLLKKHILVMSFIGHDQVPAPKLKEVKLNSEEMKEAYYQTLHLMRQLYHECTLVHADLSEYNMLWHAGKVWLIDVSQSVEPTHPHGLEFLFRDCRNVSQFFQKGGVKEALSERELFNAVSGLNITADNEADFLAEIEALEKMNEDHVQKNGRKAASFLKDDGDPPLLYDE

[3] = target: Casein kinase I isoform delta (Homo sapiens, UniProt P48730); test: Selectivity interaction (SelectScreen profiling (Invitrogen)) EUB0000607a CSNK1D; conditions: at 2 µM
[4] = target: T2, Aurora kinase C (Homo sapiens) (UniProt Q9UQB9); conditions: at 10 µM
T2 sequence (whole entry): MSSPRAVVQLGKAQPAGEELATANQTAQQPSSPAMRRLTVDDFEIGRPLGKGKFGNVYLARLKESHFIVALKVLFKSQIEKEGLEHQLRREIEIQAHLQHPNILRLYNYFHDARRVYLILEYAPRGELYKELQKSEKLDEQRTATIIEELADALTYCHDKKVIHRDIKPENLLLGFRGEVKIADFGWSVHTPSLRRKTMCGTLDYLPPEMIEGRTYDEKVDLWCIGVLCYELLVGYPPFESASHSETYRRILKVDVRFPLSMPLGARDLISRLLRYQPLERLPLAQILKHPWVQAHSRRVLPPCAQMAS

[5] = target: Dual specificity protein kinase CLK4 (Homo sapiens, UniProt Q9HAZ1); conditions: at 10 µM
Dual specificity protein kinase CLK4, sequence (Q9HAZ1 whole entry, looked up): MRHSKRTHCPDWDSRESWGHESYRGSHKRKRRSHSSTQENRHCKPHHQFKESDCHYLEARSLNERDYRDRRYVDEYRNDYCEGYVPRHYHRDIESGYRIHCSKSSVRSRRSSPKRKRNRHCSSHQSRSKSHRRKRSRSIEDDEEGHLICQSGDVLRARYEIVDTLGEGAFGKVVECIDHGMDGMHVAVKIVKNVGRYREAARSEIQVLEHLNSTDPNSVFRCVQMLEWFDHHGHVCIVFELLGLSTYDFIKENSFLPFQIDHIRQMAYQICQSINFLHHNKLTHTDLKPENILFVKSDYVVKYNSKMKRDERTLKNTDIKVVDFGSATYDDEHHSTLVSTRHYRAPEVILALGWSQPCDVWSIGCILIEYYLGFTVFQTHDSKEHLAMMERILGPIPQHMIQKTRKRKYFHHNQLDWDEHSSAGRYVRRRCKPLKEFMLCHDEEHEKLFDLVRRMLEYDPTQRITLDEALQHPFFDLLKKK

[6] = target: RAC-gamma serine/threonine-protein kinase (Homo sapiens, UniProt Q9Y243); test: Selectivity interaction (Kinase panel (Invitrogen)) EUB0000639a AKT3; conditions: at 200 nM
RAC-gamma serine/threonine-protein kinase, sequence (Q9Y243 whole entry, the tested form may be a part): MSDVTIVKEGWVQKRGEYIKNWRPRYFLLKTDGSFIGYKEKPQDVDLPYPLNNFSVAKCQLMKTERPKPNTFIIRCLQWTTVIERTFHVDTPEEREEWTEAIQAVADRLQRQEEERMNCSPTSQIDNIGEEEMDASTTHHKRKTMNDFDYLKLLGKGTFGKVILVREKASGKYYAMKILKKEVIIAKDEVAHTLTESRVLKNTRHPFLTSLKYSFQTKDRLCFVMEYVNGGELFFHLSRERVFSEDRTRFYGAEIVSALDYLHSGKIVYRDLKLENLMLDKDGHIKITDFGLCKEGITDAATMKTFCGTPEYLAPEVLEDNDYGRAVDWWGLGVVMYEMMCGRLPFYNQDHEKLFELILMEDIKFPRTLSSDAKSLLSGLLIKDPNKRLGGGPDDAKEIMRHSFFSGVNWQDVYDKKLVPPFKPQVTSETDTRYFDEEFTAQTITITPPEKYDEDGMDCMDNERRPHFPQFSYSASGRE

[7] = target: Phosphatidylinositol 4-phosphate 3-kinase C2 domain-containing subunit beta (Homo sapiens) (UniProt O00750); test: Selectivity interaction (KinomeScan (DiscoverX)) EUB0000695a PIK3C2B; conditions: at 100 nM
Phosphatidylinositol 4-phosphate 3-kinase C2 domain-containing subunit beta (Homo sapiens), sequence (O00750 whole entry, the tested form may be a part): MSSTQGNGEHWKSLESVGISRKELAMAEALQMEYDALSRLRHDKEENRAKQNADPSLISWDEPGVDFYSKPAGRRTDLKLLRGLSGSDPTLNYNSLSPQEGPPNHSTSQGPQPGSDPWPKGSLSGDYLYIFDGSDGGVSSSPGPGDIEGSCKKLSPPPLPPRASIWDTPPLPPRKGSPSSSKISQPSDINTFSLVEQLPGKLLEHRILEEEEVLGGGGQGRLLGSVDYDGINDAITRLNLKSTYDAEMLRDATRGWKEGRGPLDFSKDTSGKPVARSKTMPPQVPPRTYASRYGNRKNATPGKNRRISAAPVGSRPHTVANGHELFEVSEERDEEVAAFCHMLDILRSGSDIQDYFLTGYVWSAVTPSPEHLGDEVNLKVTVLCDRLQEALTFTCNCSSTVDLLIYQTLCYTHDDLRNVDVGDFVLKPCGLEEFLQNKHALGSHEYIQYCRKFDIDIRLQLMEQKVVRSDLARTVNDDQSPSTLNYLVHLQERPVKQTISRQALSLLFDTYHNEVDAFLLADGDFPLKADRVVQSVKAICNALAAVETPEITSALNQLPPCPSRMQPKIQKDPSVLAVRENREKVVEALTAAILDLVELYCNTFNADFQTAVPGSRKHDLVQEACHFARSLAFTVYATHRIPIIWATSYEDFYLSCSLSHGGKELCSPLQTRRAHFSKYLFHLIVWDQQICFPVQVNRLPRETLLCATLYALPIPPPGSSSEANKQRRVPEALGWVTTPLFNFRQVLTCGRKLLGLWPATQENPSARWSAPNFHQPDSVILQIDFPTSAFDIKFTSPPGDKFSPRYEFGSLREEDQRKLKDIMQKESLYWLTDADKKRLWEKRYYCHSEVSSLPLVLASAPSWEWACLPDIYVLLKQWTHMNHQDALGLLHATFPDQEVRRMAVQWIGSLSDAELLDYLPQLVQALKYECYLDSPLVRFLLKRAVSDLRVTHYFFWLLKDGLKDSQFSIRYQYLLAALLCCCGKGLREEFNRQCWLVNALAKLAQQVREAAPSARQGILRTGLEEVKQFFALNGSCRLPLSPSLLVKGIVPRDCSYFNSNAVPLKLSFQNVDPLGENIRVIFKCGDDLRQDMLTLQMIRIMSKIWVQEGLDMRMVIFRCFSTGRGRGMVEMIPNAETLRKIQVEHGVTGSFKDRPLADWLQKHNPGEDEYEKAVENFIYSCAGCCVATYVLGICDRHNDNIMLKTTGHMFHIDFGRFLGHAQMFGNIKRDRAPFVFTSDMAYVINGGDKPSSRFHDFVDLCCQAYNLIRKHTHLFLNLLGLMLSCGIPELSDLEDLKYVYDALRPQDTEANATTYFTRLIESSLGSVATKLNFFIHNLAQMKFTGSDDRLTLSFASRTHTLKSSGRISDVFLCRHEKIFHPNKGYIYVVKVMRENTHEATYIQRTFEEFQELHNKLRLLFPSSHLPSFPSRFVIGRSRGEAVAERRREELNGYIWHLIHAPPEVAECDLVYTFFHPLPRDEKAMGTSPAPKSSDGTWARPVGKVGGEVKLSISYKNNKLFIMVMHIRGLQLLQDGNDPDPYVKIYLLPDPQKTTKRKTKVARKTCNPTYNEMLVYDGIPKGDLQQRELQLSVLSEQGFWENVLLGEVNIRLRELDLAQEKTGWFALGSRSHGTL

[8] = target: T3, Serine/threonine-protein kinase D1 (Homo sapiens) (UniProt Q15139); test: Selectivity interaction (Kinase screening (Nanosyn)) EUB0000604a PRKD1
T3 sequence (whole entry): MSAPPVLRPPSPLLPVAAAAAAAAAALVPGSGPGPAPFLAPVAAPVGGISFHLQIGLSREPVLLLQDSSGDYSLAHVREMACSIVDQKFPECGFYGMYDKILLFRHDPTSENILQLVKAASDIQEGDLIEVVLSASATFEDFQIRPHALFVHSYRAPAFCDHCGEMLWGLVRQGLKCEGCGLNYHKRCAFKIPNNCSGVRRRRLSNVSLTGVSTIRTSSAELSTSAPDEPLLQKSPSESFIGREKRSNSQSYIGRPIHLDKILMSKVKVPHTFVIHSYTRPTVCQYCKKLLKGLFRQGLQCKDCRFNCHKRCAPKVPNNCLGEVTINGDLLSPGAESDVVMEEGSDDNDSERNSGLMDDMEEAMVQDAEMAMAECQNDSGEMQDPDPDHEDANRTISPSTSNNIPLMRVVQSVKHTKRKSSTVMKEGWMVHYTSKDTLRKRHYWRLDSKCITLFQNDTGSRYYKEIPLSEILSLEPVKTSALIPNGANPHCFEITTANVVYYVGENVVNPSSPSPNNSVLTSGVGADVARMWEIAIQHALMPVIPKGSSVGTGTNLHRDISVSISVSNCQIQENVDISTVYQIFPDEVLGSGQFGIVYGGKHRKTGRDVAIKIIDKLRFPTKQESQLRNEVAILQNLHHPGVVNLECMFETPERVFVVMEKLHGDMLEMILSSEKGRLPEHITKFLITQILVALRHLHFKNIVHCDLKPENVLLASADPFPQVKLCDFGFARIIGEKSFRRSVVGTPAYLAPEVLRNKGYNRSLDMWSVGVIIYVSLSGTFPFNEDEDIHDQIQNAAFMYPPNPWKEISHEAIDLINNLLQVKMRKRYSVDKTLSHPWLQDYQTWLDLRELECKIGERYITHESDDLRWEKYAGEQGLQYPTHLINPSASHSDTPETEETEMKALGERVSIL

[9] = target: T4, Serine/threonine-protein kinase Sgk3 (Homo sapiens) (UniProt Q96BR1); test: Selectivity interaction (Kinase screening (Nanosyn)) EUB0000604a SGK3
T4 sequence (whole entry): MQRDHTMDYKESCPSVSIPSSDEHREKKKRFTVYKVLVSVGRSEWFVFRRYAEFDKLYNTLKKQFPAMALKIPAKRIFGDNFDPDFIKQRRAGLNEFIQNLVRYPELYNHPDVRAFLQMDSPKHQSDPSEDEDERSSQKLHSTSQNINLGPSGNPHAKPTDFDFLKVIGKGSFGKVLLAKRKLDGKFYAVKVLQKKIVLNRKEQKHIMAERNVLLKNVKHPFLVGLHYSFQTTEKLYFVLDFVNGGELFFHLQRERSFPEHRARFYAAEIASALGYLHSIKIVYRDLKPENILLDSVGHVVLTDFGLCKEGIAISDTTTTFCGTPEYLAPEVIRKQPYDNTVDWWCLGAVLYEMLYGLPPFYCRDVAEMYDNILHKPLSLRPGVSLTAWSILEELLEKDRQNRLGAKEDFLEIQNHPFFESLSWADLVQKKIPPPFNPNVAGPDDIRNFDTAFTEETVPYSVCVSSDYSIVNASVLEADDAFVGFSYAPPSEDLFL

[10] = target: SRSF protein kinase 1 (Homo sapiens, UniProt Q96SB4); test: Selectivity interaction (KinomeScan (DiscoverX)) EUB0000045b SRPK1
SRSF protein kinase 1, sequence (Q96SB4 whole entry): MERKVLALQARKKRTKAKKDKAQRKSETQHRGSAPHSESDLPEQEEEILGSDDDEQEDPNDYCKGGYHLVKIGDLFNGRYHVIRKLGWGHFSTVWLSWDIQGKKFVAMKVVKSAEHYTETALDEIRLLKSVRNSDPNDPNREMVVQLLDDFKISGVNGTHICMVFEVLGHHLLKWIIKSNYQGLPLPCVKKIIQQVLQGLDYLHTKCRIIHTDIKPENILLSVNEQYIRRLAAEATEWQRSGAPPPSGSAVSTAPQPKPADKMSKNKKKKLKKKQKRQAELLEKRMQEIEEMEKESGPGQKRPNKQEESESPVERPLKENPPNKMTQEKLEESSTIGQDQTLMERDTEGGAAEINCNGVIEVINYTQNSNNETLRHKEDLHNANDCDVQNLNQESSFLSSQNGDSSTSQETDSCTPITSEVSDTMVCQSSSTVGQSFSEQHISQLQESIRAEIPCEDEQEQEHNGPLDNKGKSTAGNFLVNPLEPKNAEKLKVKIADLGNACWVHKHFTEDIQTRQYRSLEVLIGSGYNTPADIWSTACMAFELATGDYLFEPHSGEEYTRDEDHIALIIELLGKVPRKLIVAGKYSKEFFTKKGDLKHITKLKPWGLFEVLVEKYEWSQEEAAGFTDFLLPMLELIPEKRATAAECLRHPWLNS

[11] = target: Fibroblast growth factor receptor 1 (Homo sapiens, UniProt P11362); test: Selectivity interaction (KinomeScan (DiscoverX)) EUB0000229b FGFR1; conditions: at 10 µM
Fibroblast growth factor receptor 1, sequence (P11362 22-822 limits assumed): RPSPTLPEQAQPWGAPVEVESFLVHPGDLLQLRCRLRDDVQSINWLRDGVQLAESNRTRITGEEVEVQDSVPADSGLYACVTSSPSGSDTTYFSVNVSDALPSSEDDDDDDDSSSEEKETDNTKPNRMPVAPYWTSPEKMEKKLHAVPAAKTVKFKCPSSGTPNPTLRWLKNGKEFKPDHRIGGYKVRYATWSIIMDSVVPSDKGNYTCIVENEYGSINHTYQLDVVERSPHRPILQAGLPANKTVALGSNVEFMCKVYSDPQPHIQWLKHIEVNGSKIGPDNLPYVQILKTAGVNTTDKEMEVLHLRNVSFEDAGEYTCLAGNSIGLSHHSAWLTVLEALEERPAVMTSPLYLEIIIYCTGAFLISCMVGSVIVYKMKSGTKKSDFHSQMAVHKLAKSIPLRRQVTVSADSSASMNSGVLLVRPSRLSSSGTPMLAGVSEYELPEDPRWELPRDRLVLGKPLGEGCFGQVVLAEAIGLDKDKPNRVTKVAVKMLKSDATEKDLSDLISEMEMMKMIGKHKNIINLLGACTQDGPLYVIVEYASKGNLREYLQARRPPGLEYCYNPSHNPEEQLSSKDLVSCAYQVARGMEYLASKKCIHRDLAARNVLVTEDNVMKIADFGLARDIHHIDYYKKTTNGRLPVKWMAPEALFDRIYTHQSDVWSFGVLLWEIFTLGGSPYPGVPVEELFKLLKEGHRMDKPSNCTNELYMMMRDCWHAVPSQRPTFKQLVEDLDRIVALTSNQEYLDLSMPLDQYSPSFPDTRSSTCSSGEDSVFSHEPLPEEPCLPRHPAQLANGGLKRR

[12] = target: Mitogen-activated protein kinase kinase kinase kinase 1 (Homo sapiens) (UniProt Q92918); test: Selectivity interaction (KinomeScan (DiscoverX)) EUB0000229b MAP4K1; conditions: at 10 µM

Leukocyte tyrosine kinase receptor, sequence (P29376 whole entry): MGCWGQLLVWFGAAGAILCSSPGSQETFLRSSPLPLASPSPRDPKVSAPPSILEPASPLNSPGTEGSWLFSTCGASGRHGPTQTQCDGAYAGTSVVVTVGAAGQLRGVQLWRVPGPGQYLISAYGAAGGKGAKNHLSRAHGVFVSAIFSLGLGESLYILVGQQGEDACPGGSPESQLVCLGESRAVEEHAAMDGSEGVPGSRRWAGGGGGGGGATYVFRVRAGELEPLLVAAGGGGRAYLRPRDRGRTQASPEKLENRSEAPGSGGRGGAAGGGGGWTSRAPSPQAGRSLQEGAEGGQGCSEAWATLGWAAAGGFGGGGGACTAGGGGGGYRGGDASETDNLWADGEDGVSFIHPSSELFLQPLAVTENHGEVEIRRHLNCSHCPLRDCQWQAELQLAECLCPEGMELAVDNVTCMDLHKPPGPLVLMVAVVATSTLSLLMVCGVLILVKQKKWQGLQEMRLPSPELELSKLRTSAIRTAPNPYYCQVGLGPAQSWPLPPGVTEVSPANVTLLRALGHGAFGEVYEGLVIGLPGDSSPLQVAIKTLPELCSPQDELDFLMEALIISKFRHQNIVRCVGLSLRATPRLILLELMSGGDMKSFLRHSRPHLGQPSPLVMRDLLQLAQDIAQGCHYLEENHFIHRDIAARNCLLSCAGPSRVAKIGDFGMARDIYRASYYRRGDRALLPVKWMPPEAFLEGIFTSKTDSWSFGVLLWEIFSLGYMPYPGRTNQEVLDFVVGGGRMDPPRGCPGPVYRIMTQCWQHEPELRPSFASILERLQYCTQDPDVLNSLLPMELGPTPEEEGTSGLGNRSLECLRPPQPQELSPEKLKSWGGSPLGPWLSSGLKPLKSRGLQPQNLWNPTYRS

For `Cn1cc(-n2cnc3c(NCc4nc5cc(Cl)c(Cl)cc5[nH]4)nc(N4CCOCC4)nc32)cn1`, the % of control [1] was 3.23%.
`O=C(NOC[C@H](O)CO)c1ccc(F)c(F)c1Nc1ccc(I)cc1F` gave a % of control [2] of 100%.
`CNC(=O)Nc1ccc(-c2nc(N3CC4CCC(C3)O4)c3cnn(C4CCC5(CC4)OCCO5)c3n2)cc1` gave a % of inhibition [3] of 2%.
With `CCN(CC)CCCCNc1ncc2cc(-c3cc(OC)cc(OC)c3)c(NC(=O)NC(C)(C)C)nc2n1` the % of control [4] was 100% and the % of control [5] was 100%.
`CC[C@@H]1[C@H](F)C(=O)N[C@@H]1COc1nccc2cc(C(N)=O)c(OC)cc12` [ZIMLOVISERTIB] was tested, and the % of inhibition [6] was 1.08%.
`Cc1cc(F)c(C(=O)Nc2cccc(-c3nncn3C(C)C)n2)cc1-n1cnc(C2CC2)c1` showed a % of control [7] of 100%.
`Cc1cnc(Nc2ccc(F)cc2Cl)nc1-c1c[nH]c(C(=O)N[C@H](CO)c2cccc(Cl)c2)c1` gave a % of inhibition [8] of 43% and a % of inhibition [9] of 2%.
Work on `C=CC(=O)Nc1cc(-n2c(=O)ccc3cnc4ccc(-c5ccc(NS(C)(=O)=O)cc5)cc4c32)ccc1C` yielded a % of control ([10]; at 1 µM) of 78% and a % of control ([10]; at 10 µM) of 100%.
For `COc1cc(N(C)c2ccnc3ccc(C(F)(F)F)cc23)cc(OC)c1OC`, the % binding [11] was 99% and the % binding [12] was 96%.
